Assays:
[1] = system: E. coli (strain NCTC 10418); assay: Antimicrobial susceptibility testing by flow cytometry-based assay (LIVE/DEAD BacLight, Syto9/PI); format: cell-based, Escherichia coli; details: 50 μg/ml, 30 minutes
Protocol: E. coli (strain NCTC 10418), P. aeruginosa (Strain PAO1) and S. aureus (Wood 46, NCTC 7121) cells were grown in 5 mL of Todd Hewitt Broth medium (THB; Sigma-Aldrich). Bacteria were cultivated at 37° C. for 15 h in a 15 mL tube to obtain late-log phase cultures. Bacterial cultures were pelleted at 3096 g for 10 minutes; the supernatant was discarded and bacteria were resuspended in phosphate-buffered saline (PBS) supplemented with 40 mg/ml human albumin to mimic chemical properties of blood. Bacteria were diluted to a standardized inoculum of 10^9 CFU/mL.
Bacteria were treated with GA, LL-37, Piperacillin/Tazobactam or Vancomycin in varying concentrations, i.e. 50, 25, 10 or 2 μg/ml, for 30 minutes. As a positive control, bacteria were treated with 7% isopropanol. Hereafter, bacteria were pelleted at 3096 g for 10 minutes; the supernatant was discarded and bacteria were resuspended in PBS. The antimicrobial effect was tested in a well-established and widely used flow cytometry-based assay (LIVE/DEAD® BacLight™ Bacterial Viability and Counting Kit (L34856), Molecular Probes/Invitrogen) according to manufacturer's manual.
For each bacteria, the flow cytometry-based assay was repeated four times.
Flow cytometry was used to determine the antimicrobial activity of GA and LL-37. The flow cytometry diagrams show the results after treatment with 50 μg/ml LL-37, GA, piperacillin/tazobactam, 7% isopropanol and the untreated control. […] This gating strategy was primarily applied to avoid counting beads in the upper right corner of the FS-SS. […] Thus, a two-color fluorescence assay of bacterial viability, including PI and Syto9 staining, was applied. Syto9 stains all bacteria in a population, i.e. those with intact and those with damaged membranes. In contrast, propidium iodide (PI) penetrates only bacteria with damaged membranes, thereby making quantification of bacterial viability possible.

[2] = system: S. aureus (Wood 46, NCTC 7121); assay: Colony-forming unit (CFU) counting; format: cell-based, Staphylococcus aureus; details: 30 minutes at 37° C. in PBS
Protocol: Late-log phase E. coli (strain NCTC 10418), P. aeruginosa (strain PAO1, ATCC 15692) and S. aureus (Wood 46, NCTC 7121) were resuspended in PBS and treated with different concentrations of glatiramer acetate (GA) or LL-37 (Innovagen, Lund, Sweden) and incubated on a shaker for 30 minutes at 37° C. Subsequently, a dilution series was performed to achieve a suitable amount of bacteria on the 5% blood agar plates. The 5% blood agar streak plates were cultured at 37° C. for 16 h and the resulting CFUs on the blood agar plates were imaged with a digital camera and counted with the aid of the software ImageJ 1.48v.

P. aeruginosa (PAO1) [3] = assay: Antimicrobial activity in human serum and plasma (flow cytometry, PI/Syto9); format: cell-based, Pseudomonas aeruginosa; details: P. aeruginosa PAO1 ~10^8 cells/ml
Text: It has been reported that the antimicrobial activity of antimicrobial peptides are inhibited by their binding to different factors in human plasma (Wang, Y., et al., Apolipoprotein A-I binds and inhibits the human antibacterial/cytotoxic peptide LL-37. J Biol Chem, 1998. 273(50): p. 33115-8), serum and is influenced by pH and ion composition (Johansson, J., et al., Conformation-dependent antibacterial activity of the naturally occurring human peptide LL-37. J Biol Chem, 1998. 273(6): p. 3718-24). To investigate the potential of GA for systemic application, bacterial isolates of P. aeruginosa (PAO1, ˜10^8 cells/ml) were incubated with increasing concentrations of GA and compared to LL-37. Bacterial survival and enumeration was evaluated by a flow cytometry bead standard and stained with propidium iodide and Syto9 following procedures as previously described above in the antimicrobial susceptibility testing by flow cytometry-based assay. […] All experiments were performed as four replicates.

E. coli (NCTC 10418) = assay: Transmission electron microscopy of treated bacteria; format: cell-based, Escherichia coli
Text: (§1) Transmission electron microscopy (TEM) was applied to examine the ultrastructural changes in P. aeruginosa (PAO1), S. aureus (Wood 46) and E. coli (NCTC 10418) induced after treatment with GA and LL-37. […] This critical alteration in the outer membrane of E. coli has previously been described as a disintegration of the outer membrane into micelles and vesicle-like structures (Meincken, M., D. L. Holroyd, and M. Rautenbach, Atomic force microscopy study of the effect of antimicrobial peptides on the cell envelope of Escherichia coli. Antimicrob Agents Chemother, 2005. 49(10): p. 4085-92). […] After incubation with LL-37 and GA, we found burst cells, but this observation was most significant after treatment with LL-37 (FIG. 9). Scale bar, 0.5 μm. Experiments were performed as 2 replicates.

P. aeruginosa (PAO1) [4] = assay: as above; format: cell-based, Pseudomonas aeruginosa
Text: as §1

S. aureus (Wood 46) = assay: as above; format: cell-based, Staphylococcus aureus
Text: as §1

Glatiramer acetate [GA]
percentage of bacteria testing positive for PI [1]: 17.7% | percentage of bacteria testing positive for Syto-9 [1]: 78.3% | antibacterial effect by CFU counting (in words) [2]: low antimicrobial impact | antimicrobial activity in human plasma and serum (in words) (P. aeruginosa (PAO1) [3]): retains antimicrobial activity | ultrastructural changes (TEM, in words) (E. coli (NCTC 10418)): Signs of damage to the bacterial membrane | ultrastructural changes (TEM, in words) (P. aeruginosa (PAO1) [4]): dramatically reduced number of P. aeruginosa | ultrastructural changes (TEM, in words) (S. aureus (Wood 46)): burst cells

Reference: patent publication US10166253B2, “Positively charged co-polymers for use as antimicrobial agents” (priority 2014, dated 2019)
